According to patent US20050148514A1, “Method and composition for treatment of angiogenesis” (priority 2003, published 2005):
Where no end group is shown, it is not given here. The star is where a group is joined. Acm = CC(=O)NC*

What was measured:
[1] = system: tumor growth; conditions: animals, previous results; cited from earlier work
[2] = biological target: T1, VEGFR-2 (Homo sapiens, UniProt P35968); test: VEGF-induced VEGFR-2 phosphorylation in HUVEC (immunoprecipitation, western blot); type: cell-based; conditions: serum-starved HUVEC, 300 μg/ml; 24 h
T1 construct: host or cells: HUVEC
T1 sequence (P35968 20-1356): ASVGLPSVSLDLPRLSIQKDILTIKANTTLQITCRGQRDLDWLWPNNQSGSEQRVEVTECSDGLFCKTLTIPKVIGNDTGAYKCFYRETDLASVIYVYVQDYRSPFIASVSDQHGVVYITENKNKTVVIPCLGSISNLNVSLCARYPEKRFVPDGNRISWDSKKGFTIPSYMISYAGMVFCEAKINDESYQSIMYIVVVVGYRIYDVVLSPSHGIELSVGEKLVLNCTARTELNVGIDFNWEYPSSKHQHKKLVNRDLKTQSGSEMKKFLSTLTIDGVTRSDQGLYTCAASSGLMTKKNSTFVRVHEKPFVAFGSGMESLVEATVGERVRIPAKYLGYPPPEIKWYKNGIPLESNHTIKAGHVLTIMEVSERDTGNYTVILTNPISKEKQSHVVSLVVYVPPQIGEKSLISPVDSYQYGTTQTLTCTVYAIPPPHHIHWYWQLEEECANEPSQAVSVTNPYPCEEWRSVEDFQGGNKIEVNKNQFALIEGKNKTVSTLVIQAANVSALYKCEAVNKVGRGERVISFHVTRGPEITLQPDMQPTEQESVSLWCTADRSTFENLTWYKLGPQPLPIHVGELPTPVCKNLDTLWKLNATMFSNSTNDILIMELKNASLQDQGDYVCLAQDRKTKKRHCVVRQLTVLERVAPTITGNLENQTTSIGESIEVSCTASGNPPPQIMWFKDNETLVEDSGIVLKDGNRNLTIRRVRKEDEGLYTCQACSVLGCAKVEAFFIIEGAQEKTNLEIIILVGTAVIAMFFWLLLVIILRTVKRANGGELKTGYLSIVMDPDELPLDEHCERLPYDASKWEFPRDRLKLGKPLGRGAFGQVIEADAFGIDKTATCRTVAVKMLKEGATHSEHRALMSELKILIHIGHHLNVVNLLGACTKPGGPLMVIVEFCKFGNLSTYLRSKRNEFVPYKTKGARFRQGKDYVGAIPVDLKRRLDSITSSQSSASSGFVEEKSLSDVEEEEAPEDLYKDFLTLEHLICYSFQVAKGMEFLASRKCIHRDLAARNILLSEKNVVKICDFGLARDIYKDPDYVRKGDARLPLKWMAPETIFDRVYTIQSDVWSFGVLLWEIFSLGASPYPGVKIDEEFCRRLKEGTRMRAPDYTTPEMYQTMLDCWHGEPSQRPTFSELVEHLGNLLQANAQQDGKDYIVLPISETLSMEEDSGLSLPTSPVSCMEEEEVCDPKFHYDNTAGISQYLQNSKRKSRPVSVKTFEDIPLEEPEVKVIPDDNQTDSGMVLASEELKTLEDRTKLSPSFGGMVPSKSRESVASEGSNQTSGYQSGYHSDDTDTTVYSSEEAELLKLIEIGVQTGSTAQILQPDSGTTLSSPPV
Experimental: (§1) Cell culture. Human umbilical vein endothelial cells (HUVEC) and pulmonary aortic smooth muscle cells (PASMC) were obtained from Clonetics and maintained in endothelial cell basal medium-2, (EBM-2; Clonetics) and smooth muscle medium-2 (SmGM-2; Clonetics), respectively. Cells were cultured at 37° C. under a humidified atmosphere containing 5% CO2. For experimental purposes, cells were plated in 8 100-mm plastic dishes at 5,000 cells/cm^2 and were grown to confluence before overnight serum starvation. Cells were treated with vehicle or with a PCK3145 derivative diluted in 0.1 N NaOH, and stimulated with 50 ng/ml VEGF, PDGF or with 1 μM S1P.
Immunoprecipitation and immunoblotting procedures. After treatment, cells were washed once with phosphate-buffered saline (PBS) containing 1 mM sodium orthovanadate and were incubated in the same medium for 1 h at 4° C. The cells were solubilized on ice in lysis buffer (150 mM NaCl, 10 mM Tris-HCl, pH 7.4, 1 mM EDTA, 1 mM EGTA, 0.5% Nonidet P-40, 1% Triton X-100) containing 1 mM sodium orthovanadate. The cells were then scraped from the culture dishes and the resulting lysates were clarified by centrifugation at 10,000 g for 10 min. Protein concentrations were determined using the micro bicinchoninic acid method. For immunoprecipitation studies, lysates were clarified by a 1 h incubation at 4° C. with a mixture of Protein A/Protein G Sepharose beads. After removal of the Sepharose beads by low-speed centrifugation, identical amounts of protein (200 μg) from each sample were transferred to fresh tubes and incubated in lysis buffer overnight at 4° C. in the presence of 2 μg/ml of specific antibodies. […]
The multifunctionality of VEGF at the cellular level results from its ability to initiate a diverse, complex and integrated network of signaling pathways via its major receptor, VEGFR-2. […] After each treatment, equal amounts of protein were immunoprecipitated with anti-VEGFR-2 polyclonal antibodies and analysed by Western blotting.

[3] = system: ERK; test: Growth factor-induced ERK phosphorylation in HUVEC (western blot); type: cell-based, Human; conditions: serum-starved HUVEC, 300 μg/ml for 24 h, then VEGF
Experimental: as §1
Immunoprecipitation and immunoblotting procedures. After treatment, cells were washed once with phosphate-buffered saline (PBS) containing 1 mM sodium orthovanadate and were incubated in the same medium for 1 h at 4° C. The cells were solubilized on ice in lysis buffer (150 mM NaCl, 10 mM Tris-HCl, pH 7.4, 1 mM EDTA, 1 mM EGTA, 0.5% Nonidet P-40, 1% Triton X-100) containing 1 mM sodium orthovanadate. The cells were then scraped from the culture dishes and the resulting lysates were clarified by centrifugation at 10,000 g for 10 min. Protein concentrations were determined using the micro bicinchoninic acid method. For immunoprecipitation studies, lysates were clarified by a 1 h incubation at 4° C. with a mixture of Protein A/Protein G Sepharose beads. After removal of the Sepharose beads by low-speed centrifugation, identical amounts of protein (200 μg) from each sample were transferred to fresh tubes and incubated in lysis buffer overnight at 4° C. in the presence of 2 μg/ml of specific antibodies. Immunocomplexes were collected by incubating the mixture with 25 μl (50% suspension) of Protein A—(rabbit primary antibody) or Protein G—(mouse primary antibody) Sepharose beads, for 2 h. Nonspecifically-bound material was removed by washing the beads three times in 1 ml of lysis buffer containing 1 mM sodium orthovanadate, and bound material was solubilized in 25 μl of two-fold concentrated Laemmli sample buffer, boiled 5 min, and resolved by SDS-PAGE. The proteins were transferred onto polyvinylidene difluoride (PVDF) membranes, blocked 1 h at room temperature with Tris-buffered saline/Tween 20 (147 mM NaCl, 20 mM Tris/HCl, pH 7.5, and 0.1% Tween 20) containing 2% bovine serum albumin and incubated overnight at 4° C. with primary antibody.
VEGF is a strong activator of ERKs (Extracellular-signal-Regulated protein Kinases) 1 and 2 via VEGF receptor 2. In order to test the ability of the PCK3145 derivative in potentially antagonizing VEGF-mediated ERK phosphorylation, serum-starved quiescent endothelial cells (HUVEC) were incubated with vehicle (phosphate-buffered saline (PBS) pH 7.4) or PCK3145 derivative (300 μg/ml) for 24 h and then stimulated with VEGF, bFGF (basic Fibroblast Growth Factor) or S1P (sphingosine-1-phosphate). Cells were washed with PBS containing NaF/Na3VO4 and incubated in the same medium buffer for 1 h at 4° C. The cells were scraped from the culture dishes and the resulting lysates clarified by centrifugation. Western blotting and immunodetection using anti-phosphoERK and anti-ERK antibodies was then performed.

[4] = system: ERK; test: Intrinsic effect on ERK phosphorylation (western blot); type: cell-based; conditions: MAPK inhibitor added with PCK3145 derivative
Experimental: In order to investigate the potential intracellular pathways triggered by the PCK3145 derivative, a gene-reporter assay using the SEAP (Secreted Alkaline Phosphatase) Mercury Profiling Kit (CLONTECH) was performed in glioma cells (U-87). This assay enables the monitoring of transcription factors that are triggered by a particular experimental condition by assaying the alkaline phosphatase activity in the extracellular media. […] The induction of the MAPK pathway by the PCK3145 derivative is further confirmed by the rapid and transient induction of ERK phosphorylation between 5-10 minutes (FIG. 8B) and is shown to be dose-dependent (FIG. 8C). Finally, the effects of the PCK3145 derivative were also compared to those of a scrambled peptide.

[5] = system: ERK; conditions: cited from earlier work
[6] = system: tumor cells; conditions: cited from earlier work
[7] = system: skeletal metastasis; conditions: cited from earlier work

EWQTDNCETCTCYET (cysteine pairing not given here) [PCK3145]
tumor growth [1]: tumor growth inhibition

Thr-Cys(Acm)-Glu-Asn-Cys(Acm)-Thr-Glu-Thr-Gln-Trp-Cys(Acm)-Glu-Thr-Asp-Tyr (TC(Acm)ENC(Acm)TETQWC(Acm)ETDY) [scrambled peptide, negative control, reference compound]
phosphorylation of VEGFR-2 induced by VEGF [2]: lack of effect | ERK phosphorylation induced by VEGF [3]: lack of effect

COc1cccc(-c2cc(=O)c3ccccc3o2)c1N [PD98059, reference compound]
effect on induction of ERK phosphorylation by the PCK3145 derivative [4]: antagonized | ERK phosphorylation (pharmacological inhibitor, documented) [5]: documented pharmacological inhibitor of ERK phosphorylation

B1: Ser Cys Tyr Phe Ile Pro Asn Glu Gly Val Pro Gly Asp Ser Thr Arg Lys Cys Met Asp Leu Lys Gly Asn Lys His Pro Ile Asn Ser Glu Trp Gln Thr Asp Asn Cys Glu Thr Cys Thr Cys Tyr Glu Thr Glu Ile Ser Cys Cys … (protein, listed as Homo sapiens)
chain: SCYFIPNEGVPGDSTRKCMDLKGNKHPINSEWQTDNCETCTCYETEISCCTLVSTPVGYDKDNCQRIFKKEDCKYIVVEKKDPKKTCSVSEWII
notes: Prostate secretory protein, wild type
growth of tumor cells [6]: inhibits growth | calcium levels ([7]; animal modeling prostate cancer): reduction in calcium levels | development of skeletal metastasis ([7]; in vivo): reduces the development of skeletal metastasis
